Several values for one entry are separate records, joined by “and”; a condition that tells them apart may be missing. Equal entries are not always repeated.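 Where inhibition never reached the appropriate level, the endpoint shown equals the highest concentration tested. Otherwise, values were interpolated linearly from a five-concentration, 48-hour dose response in 96-well plates. The concentration for 50% growth inhibition is given as GI50. At the TGI there is no net growth.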
How the values were obtained:
Assay in all cases: growth of human tumour cells (NCI), 48 h
[1] = system: SNB-78 CNS
[2] = system: KM20L2 colon
[3] = system: HOP-18 NSCLC
[4] = system: LXFL 529 NSCLC
[5] = system: M19-MEL melanoma
[6] = system: XF 498 CNS
[7] = system: DLD-1 colon
[8] = system: NCI/ADR-RES ovarian
[9] = system: T-47D breast
[10] = system: PC-3 prostate

CC1=CC=NN2C(=O)[C@H](C)C2C1 (stereo not given in full)
TGI [1]: > 100 µM | TGI [2]: > 100 µM | TGI [3]: > 100 µM | TGI [4]: > 100 µM | TGI [5]: > 100 µM | TGI [6]: > 100 µM | TGI [7]: > 100 µM

Cc1ccc(S(=O)(=O)N/N=C(\CCN2CCCC2)CC(c2ccccc2)c2c(O)c3ccccc3oc2=O)cc1 (stereo not given)
TGI [1]: > 100 µM | TGI [2]: > 100 µM | TGI [3]: > 100 µM | TGI [4]: > 100 µM | TGI [5]: > 100 µM | TGI [6]: > 100 µM | TGI [7]: > 100 µM

Cc1[nH]c(=O)[nH]c(=O)c1N(CCF)CCCl
GI50 [1]: 435 µM | TGI [1]: 1000 µM and 1400 µM and 1210 µM | GI50 [8]: 443 µM and 206 µM | TGI [8]: 820 µM and 1130 µM and 1090 µM | TGI [9]: 1340 µM | GI50 [2]: 194 µM and 429 µM | TGI [2]: 455 µM and 1280 µM and 619 µM | GI50 [3]: 401 µM and 719 µM and 415 µM | TGI [3]: 927 µM and 2060 µM and 1190 µM | TGI [10]: 954 µM | GI50 [6]: 334 µM and 198 µM | TGI [6]: 679 µM and 554 µM | GI50 [7]: 303 µM and 472 µM | TGI [7]: 1250 µM and 1290 µM and 830 µM

O=C(O)c1ccc(S(=O)(=O)c2ccccc2)c([N+](=O)[O-])c1
TGI [1]: > 100 µM | TGI [2]: > 100 µM | TGI [3]: > 100 µM | TGI [4]: > 100 µM | TGI [5]: > 100 µM | TGI [7]: > 100 µM

C/C(=N\N=C(N)N)C(CN(CC(C)C)CC(C)C)C(=O)Nc1ccc(C)cc1C (stereo not given)
TGI [1]: > 100 µM | TGI [2]: > 100 µM | TGI [3]: > 100 µM | TGI [4]: > 100 µM | TGI [5]: > 100 µM | TGI [6]: > 100 µM | TGI [7]: > 100 µM

O=C(Cc1nc2ccccc2s1)C(=O)Nc1ccc(Cl)cc1
TGI [1]: > 100 µM | TGI [2]: > 100 µM | TGI [3]: > 100 µM | TGI [4]: > 100 µM | TGI [5]: > 100 µM | TGI [7]: > 100 µM

CN(C)CCCCN1CCc2c(n(C)c3ccccc23)C1=O
TGI [1]: > 100 µM | TGI [8]: > 100 µM | TGI [9]: > 51.5 µM and 59.9 µM | TGI [2]: > 72.9 µM | TGI [3]: > 100 µM | GI50 [10]: 33 µM and > 68.7 µM | TGI [10]: > 100 µM | TGI [4]: 35.1 µM | TGI [5]: 69.6 µM | TGI [6]: 43.6 µM | TGI [7]: > 100 µM

C/C(=N\NC(=S)N1CCCCCC1)c1nccnc1C
TGI [1]: > 100 µM | TGI [2]: > 100 µM | TGI [3]: 76.8 µM | TGI [4]: > 100 µM | TGI [5]: 15.6 µM | TGI [6]: 9.89 µM | TGI [7]: > 100 µM

O=C1C2C(C(=O)N1O)N(Cc1ccccc1)C(=O)N2Cc1ccccc1 (stereo not given)
TGI [1]: > 100 µM | TGI [2]: > 100 µM | TGI [4]: > 100 µM | TGI [5]: > 100 µM | TGI [6]: > 100 µM | TGI [7]: > 100 µM

CC(=O)N1CCC2(C=Nc3ccccc32)CC1
TGI [1]: > 100 µM | TGI [2]: > 100 µM | TGI [3]: > 100 µM | TGI [4]: > 100 µM | TGI [5]: > 100 µM | TGI [6]: > 100 µM | TGI [7]: > 100 µM

COc1cccc(N2C(=O)c3c(c4[nH]c5ccccc5c4c4ccc(C(C)(C)C)cc34)C2=O)c1
TGI [1]: > 100 µM | TGI [2]: > 100 µM | TGI [3]: > 100 µM | TGI [4]: > 100 µM | TGI [5]: > 100 µM | TGI [6]: > 100 µM | TGI [7]: > 100 µM

CCC/C(=N\NC(=S)N1CCN(c2ccccn2)CC1)c1ccccn1
GI50 [1]: 1.08 µM | TGI [1]: > 10 µM and 4.24 µM | TGI [9]: 0.389 µM | TGI [2]: 1.58 µM | GI50 [3]: 0.0316 µM | TGI [3]: 0.68 µM and 1.15 µM | TGI [10]: 1.26 µM | TGI [4]: 0.0757 µM and 0.241 µM | GI50 [5]: 0.0534 µM | TGI [5]: 1.32 µM and 1.74 µM | TGI [6]: 0.302 µM | TGI [7]: 1.33 µM and 1.34 µM

CCOC(=N)CC(=O)Nc1ccc(Cl)cc1
TGI [1]: > 100 µM | TGI [2]: > 100 µM | TGI [4]: > 100 µM | TGI [5]: > 100 µM | TGI [6]: > 100 µM | TGI [7]: > 100 µM

C/C(CN1C(=O)c2ccccc2C1=O)=N\NS(=O)(=O)c1cccc([N+](=O)[O-])c1
TGI [1]: > 100 µM | TGI [2]: > 100 µM | TGI [3]: > 100 µM | TGI [4]: > 100 µM | TGI [5]: > 100 µM | TGI [6]: > 100 µM | TGI [7]: > 100 µM

CC(C)C(C(=O)O)N(CC1(O)OCC(O)C(O)C1O)N=O (stereo not given)
TGI [1]: > 100 µM | TGI [2]: > 100 µM | TGI [4]: > 100 µM | TGI [5]: > 100 µM | TGI [6]: > 100 µM | TGI [7]: > 100 µM

COC(=O)c1c[nH]cc1CCc1c[nH]cc1C(=O)OC
TGI [1]: > 100 µM | TGI [2]: > 100 µM | TGI [4]: > 100 µM | TGI [5]: > 100 µM | TGI [6]: > 100 µM

O=P(c1ccccc1)(c1ccccc1)C1CC=C(c2ccccc2)C2(CCCC2)C1 (stereo not given)
TGI [1]: > 100 µM | TGI [2]: > 100 µM | TGI [3]: 76.9 µM | TGI [4]: > 100 µM | TGI [5]: > 100 µM | TGI [6]: > 100 µM | TGI [7]: > 100 µM

COc1ccc(OCC(=O)O)c2c1CCC(C(C)C)C2=O (stereo not given)
TGI [1]: > 100 µM | TGI [2]: > 100 µM | TGI [3]: > 100 µM | TGI [4]: > 100 µM | TGI [5]: > 100 µM | TGI [7]: > 100 µM

CC[C@@H]1C[C@@H]2CN3CCc4c([nH]c5ccc(OC)cc45)C(COC(=O)c4ccc(OC)c(OC)c4)(C2)C13
TGI [1]: > 100 µM | TGI [2]: 74.3 µM | TGI [3]: > 100 µM | TGI [4]: 35.1 µM | TGI [5]: > 100 µM | TGI [6]: 46.1 µM

CC(=O)Nc1ccc(/C=C(\NC(=O)c2ccccc2)c2nc3ccc4c(c3[nH]2)C(=O)c2ccccc2C4=O)cc1
TGI [1]: > 100 µM | TGI [2]: > 100 µM | TGI [3]: > 100 µM | TGI [4]: > 100 µM | TGI [5]: > 100 µM | TGI [6]: > 100 µM | TGI [7]: > 100 µM

COc1ccc2[nH]cc(CCNC(C)=O)c2c1
TGI [1]: > 100 µM | TGI [2]: > 100 µM | TGI [3]: > 100 µM | TGI [4]: > 100 µM | TGI [5]: > 100 µM | TGI [6]: > 100 µM | TGI [7]: > 100 µM

COC(=O)C1(C)C=C(Nc2ccccc2)C(=O)N1c1ccccc1 (stereo not given)
TGI [1]: > 100 µM | TGI [3]: > 100 µM | TGI [4]: > 100 µM | TGI [5]: > 100 µM | TGI [6]: > 100 µM | TGI [7]: > 100 µM

CC(=O)N(C)OC(=O)CC(=O)c1ccccc1
TGI [1]: > 100 µM | TGI [2]: > 100 µM | TGI [4]: > 100 µM | TGI [5]: > 100 µM | TGI [6]: > 100 µM | TGI [7]: > 100 µM

O=S(=O)([O-])[O-].[OH3+].[OH3+].[OH3+].[Ru+2].c1ccccc1
GI50 [1]: > 100 µM | TGI [1]: > 100 µM | GI50 [3]: > 100 µM | TGI [3]: > 100 µM | GI50 [4]: > 100 µM | TGI [4]: > 100 µM | GI50 [5]: > 100 µM | TGI [5]: > 100 µM | GI50 [6]: > 100 µM | TGI [6]: > 100 µM | GI50 [7]: > 100 µM | TGI [7]: > 100 µM

Cn1ncc(=S)[nH]c1=S
TGI [1]: > 100 µM | TGI [2]: > 100 µM | TGI [3]: > 100 µM | TGI [4]: > 100 µM | TGI [5]: > 100 µM | TGI [6]: > 100 µM | TGI [7]: > 100 µM

CCN(CC)CCCN(c1cc(OC)cc2nccnc12)S(=O)(=O)c1ccc(C)cc1
TGI [2]: > 100 µM | TGI [3]: > 100 µM | TGI [4]: > 100 µM | TGI [5]: > 100 µM | TGI [6]: > 100 µM | TGI [7]: > 100 µM

O=C1NC(=O)C(C(=O)C(=O)Nc2ccc(Br)cc2)C(=O)N1
TGI [1]: > 100 µM | TGI [2]: > 100 µM | TGI [3]: > 100 µM | TGI [4]: > 100 µM | TGI [5]: > 100 µM | TGI [6]: > 100 µM | TGI [7]: > 100 µM

CC(C)(C)NNC(=O)/C(=C/c1ccc(Oc2ccc(Cl)c(Cl)c2)cc1)NC(=O)c1ccccc1
TGI [1]: > 100 µM | TGI [2]: > 100 µM | TGI [3]: > 100 µM | TGI [4]: > 100 µM | TGI [5]: > 100 µM | TGI [6]: > 100 µM | TGI [7]: > 100 µM

CCCCCCCCCCCCCS(=O)(=O)O
TGI [1]: > 100 µM | TGI [2]: > 100 µM | TGI [3]: > 100 µM | TGI [4]: > 100 µM | TGI [5]: > 100 µM | TGI [6]: > 100 µM | TGI [7]: > 100 µM

CCCc1c2c([nH]c(=O)c1C)C(=O)c1[nH]c(=O)c(C)c(CCC)c1C2=O
TGI [1]: > 100 µM | TGI [3]: > 100 µM | TGI [4]: > 100 µM | TGI [5]: 9.52 µM

Cc1ccc(NC(=O)c2[nH]c(=S)nc(N)c2-c2ccccc2C)cc1C
TGI [1]: > 100 µM | TGI [2]: > 100 µM | TGI [3]: > 100 µM | TGI [4]: > 100 µM | TGI [5]: > 100 µM | TGI [6]: > 100 µM | TGI [7]: > 100 µM

O=C(Nc1ccc(Cl)c(C(F)(F)F)c1)C(=O)C(C(=O)/C=C/c1ccccc1)C1OC(=O)c2ccccc21 (stereo not given)
TGI [1]: > 100 µM | TGI [2]: > 100 µM | TGI [3]: > 100 µM | TGI [4]: > 100 µM | TGI [5]: > 100 µM | TGI [6]: > 100 µM | TGI [7]: > 100 µM

Reference: PubChem BioAssay (NCI)
